# Measurements from US20230000843A1, “MEDICINAL COGNITIVE TREATMENTS” (ACTINOGEN MEDICAL LIMITED, priority 2019, published 2023).
# Columns and labels:
# [1] = test system: healthy elderly subjects; assay: Cogstate One Back working memory test; type: in vivo, human
# Protocol: (§1) The test was aimed at assessing if, and to what extent, Xanamem™ 20 mg a day may improve performance in healthy elderly subjects from Baseline (Week 0) to Weeks 2, 4, 6, 8, 10, 12 (End of Treatment) and 16 (Follow-up), as measured by changes in the Cogstate Test Battery. 42 subjects were randomised in which 30 subjects received 20 mg Xanamem™ once a day and 12 subjects received matching placebo once a day.
# (§2) For each visit, excluding the Screening visit and safety visits (Week 6 and Week 10), subjects arrived at the study site having fasted for at least 10 hours. The subjects took Xanamem™ at site after all the pre-dose blood samples had been taken. Xanamem™ was taken 30 minutes after the start of a meal. On non-study visit days, the subjects took Xanamem™ at the same time each morning with food (30 minutes after the start of the meal).
# (§3) One capsule of Xanamem™, or the matching placebo, was administered orally with approximately 200 mL of warm water once a day and with food in the morning, to the subjects from Baseline (Week 0) to End of Treatment (Week 12) for a total of 12 weeks. […]
# The Cogstate One Back memory test is a valid measure of working memory. […] The software measured the speed and accuracy of each response.
# [2] = test system: healthy elderly subjects; assay: Continuous Paired Associate Learning-Delayed test; type: in vivo, human; conditions: 20 mg once a day orally, 12 weeks, compared to placebo group
# Protocol: as §1, §2, §3
# (§4) Finding the correct location for all patterns in the set was defined as a learning trial. […] The software recorded each move as an error or as a correct move.
# [3] = CSF and corresponding plasma concentrations at the EOT visit; type: in vivo; conditions: human, oral, 20 mg, four CSF samples at the EOT visit, read-out: ratio of CSF to plasma concentrations
# Protocol: The ratio of Xanamem™ CSF to plasma concentrations in the four CSF samples taken at the EOT visit ranged from 0.028 to 0.421; the range of CSF concentrations was 3.48 to 6.25 ng/mL, compared to 11.6 to 126 ng/mL for the corresponding plasma concentrations.
# [4] = test system: healthy elderly subjects; assay: One Card Learning test (visual recognition learning); type: in vivo, human
# Protocol: as §1, §2
# (§5) One capsule of Xanamem™, or the matching placebo, was administered orally with approximately 200 mL of warm water once a day and with food in the morning, to the subjects from Baseline (Week 0) to End of Treatment (Week 12) for a total of 12 weeks.
# To assess the efficacy of Xanamem™ 20 mg once a day in improving cognitive ability in the subjects, the Cogstate Test Battery of the subjects were checked at Baseline (Week 0), Weeks 2, 4, and 8, Week 12 (End of Treatment) and Week 16 (Follow-up). […]
# [5] = test system: healthy elderly subjects; assay: Continuous Paired Associate Learning test (CPAL); type: in vivo, human
# Protocol: as §1, §2, §5
# (§6) To assess the efficacy of Xanamem™ 20 mg once a day in improving cognitive ability in the subjects, the Cogstate Test Battery of the subjects were checked at Baseline (Week 0), Weeks 2, 4, and 8, Week 12 (End of Treatment) and Week 16 (Follow-up).
# The Continuous Paired Associate Learning test is a measure of visual associate memory and uses a well-validated paired associate learning paradigm in which the subject must learn the locations of a number of amoeba-like shapes on the computer screen.
# Beneath all but two of the blue spheres were amoeboid shapes, one of which matched the central display; the two remaining circles were distractors. In the exposure phase of the test all of the to-be-remembered pattern-location associations were presented on the computer screen simultaneously.
# After a five second delay, a pattern was shown in the central location and this signals that the subject should touch the location in the periphery that contained the same pattern. This process continued until the participant had acknowledged all of the pattern-location associations. The learning phase began with the same test display presented during the exposure phase except that now all of the peripheral locations were shown as blue spheres. One of the patterns presented in the exposure phase was presented in the centre location. With the presentation of this pattern, the subject was required to select the peripheral location where an identical pattern was hidden beneath the blue sphere. […]
# as §4
# [6] = test system: healthy elderly subjects; assay: Cogstate Detection test (simple reaction time, psychomotor function); type: in vivo, human
# Protocol: as §1, §2, §3
# For this test, the subject pressed a “YES” response key as soon as they detected an event (a card turning face up presented in the centre of the computer screen). The software measured the response time to detect each event.
# [7] = test system: healthy elderly subjects; assay: Cogstate Test Battery overall: impairment of cognition; type: in vivo, human; conditions: 20 mg compared to placebo over 12 weeks
# Protocol: as §1, §6
# The Cogstate Test Battery included the following tests: detection test, identification test, one card learning test, one back working memory test, and the continuous paired associate learning test (CPAL; paired associate learning).
# [8] = test system: healthy elderly subjects; assay: Cogstate Identification test (choice reaction time, visual attention); type: in vivo, human
# Protocol: as §1, §2, §3
# In this test an event (a card turning face up) occurred in the centre of the computer screen and the subject decided “YES” or “NO” as to whether this event met a predefined and unchanging criterion (i.e. is the color of the card red?). The software measured the speed and accuracy of each response.
# [9] = Plasma concentrations and pharmacokinetics; type: in vivo, human
# Protocol: as §1, §2, §5
# The mean Xanamem™ plasma concentration at 3-5 hours after the first dose of the study was 169 ng/mL. […] The mean trough concentration at Weeks 2, 4, and 8, was 89, 73, and 78 ng/mL, and the mean 3 to 5 hour concentration was 353. 331, and 330 ng/mL for weeks 2, 4, and 8, respectively.
# Only body weight was identified as a covariate impacting PK in this model, confirming that the PK of Xanamem™ are consistent between healthy volunteers, patients with Alzheimer's Disease, and healthy elderly subjects.
# [10] = 20 mg once a day orally, 12 weeks, compared to placebo group
# [11] = 12 weeks treatment, 20 mg versus placebo, statistically significant
compound,measurement,setting,value
"O=C(c1csc(-c2cn[nH]c2)c1)N1[C@@H]2CC[C@H]1C[C@](O)(c1ncccn1)C2 [Xanamem™, (5-(1H-Pyrazol-4-yl)thiophen-3-yl)(3-hydroxy-3-(pyrimidin-2-yl)-8-azabicyclo[3.2.1]octan-8-yl)methanone]","working memory (speed of performance, log10 transformed reaction times for correct responses)",[1]; [10],improved working memory
same,"effect size, speed of performance on One-back test (working memory)",[1]; [11],> 0.6
same,Hippocampal dependent learning and memory (number of errors remembering the associations after a delay),[2],improved Hippocampal dependent learning and memory
same,Kp,[3],0.028 to 0.421
same,"visual learning (accuracy of performance, arcsine transformation of proportion of correct responses)","[4]; 20 mg once a day orally, week 8, compared to placebo group",improved visual learning
same,effect size (ES) data for One Card Learning outcomes,"[4]; 20 mg versus placebo, overall",tended to favour Xanamem™ 20 mg
same,Hippocampal dependent learning and memory (number of errors remembering the associations),[5]; [10],improved Hippocampal dependent learning and memory
same,differences on Continuous Paired Associates Learning Test outcomes,[5]; 20 mg versus placebo,statistically significant differences in data were in favour of Xanamem™ 20 mg
same,"effect size difference on Continuous Paired Associates Learning Test, sensitivity analysis","[5]; 20 mg versus placebo, Week 4",favoured Xanamem™ 20 mg
same,effect size (ES) data for Continuous Paired Associates outcomes,"[5]; 20 mg versus placebo, overall",tended to favour Xanamem™ 20 mg
same,"psychomotor function (speed of performance, log10 transformed reaction times for correct responses)",[6]; [10],improved psychomotor function
same,effect on Detection test (psychomotor speed),"[6]; 20 mg versus placebo, by time point",evident at week 8
same,impairment of cognition associated with treatment,[7],no systemic evidence of impairment in any respect of cognition
same,"visual attention (speed of performance, log10 transformed reaction times for correct responses)",[8]; [10],improved visual attention
same,"effect size, speed of performance on Identification test (attention)",[8]; [11],> 0.6
same,mean 3 to 5 hour plasma concentration,"[9]; Week 2, 20 mg once a day",353 ng/mL
same,mean trough plasma concentration,"[9]; Week 2, 20 mg once a day",89 ng/mL
same,mean 3 to 5 hour plasma concentration,"[9]; Week 4, 20 mg once a day",331 ng/mL
same,mean trough plasma concentration,"[9]; Week 4, 20 mg once a day",73 ng/mL
same,mean 3 to 5 hour plasma concentration,"[9]; Week 8, 20 mg once a day",330 ng/mL
same,mean trough plasma concentration,"[9]; Week 8, 20 mg once a day",78 ng/mL
same,mean plasma concentration at 3-5 hours,"[9]; after the first dose, 20 mg oral with food",169 ng/mL
same,pharmacokinetic model,[9]; only body weight identified as covariate,one-compartment model with first-order absorption and elimination
same,steady state of plasma concentrations,"[9]; trough and 3-5 hour concentrations consistent across Weeks 2, 4 and 8",steady state had been achieved by Week 2
